# According to publication PMC4210147, “Sequence-Specific Dimerization of a Transmembrane Helix in Amphipol A8-35” (PLoS ONE, 2014):
# Legend:
# [1] = target: T1, human GpA TM domain (Homo sapiens, UniProt P02724); test: FRET kinetics of exchange of GpA TM peptides between particles/micelles; format: binding; settings: for amplitude of first (fast) phase / amplitude of second (slow) phase / exchange rate constant, first (fast) phase / exchange rate constant, second (slow) phase: double-exponential fit
# T1 construct: purchased Peptide Specialty Laboratories, Heidelberg, Germany; host or cells: chemical synthesis (custom peptide)
# T1 sequence (P02724 88-120 limits assumed) 1: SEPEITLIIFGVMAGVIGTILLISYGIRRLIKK
# T1 sequence (P02724 88-120 limits assumed) 2: T1 sequence (P02724 88-120 limits assumed) 1
# Description: (§1) For Förster resonance energy transfer (FRET) measurements, equal concentrations of FL- and TAMRA-labeled GpA TM domains were used. Concentrations of the peptide stock solutions were determined from absorbance measurements on a Perkin Elmer Lambda 35 UV/VIS spectrophotometer. In all experiments, we used 0.25 µM for each of the two labeled GpA peptides. Peptides dissolved in TFE and A8-35 dissolved in ethanol were mixed, and organic solvents were removed under a gentle stream of nitrogen gas. Residual solvent traces were removed by vacuum desiccation overnight. The dried peptide/polymer film was then hydrated in 10 mM HEPES buffer (pH 7.4) containing 150 mM NaCl.
# (§2) After at least 2 h of incubation at 37°C and 10 min of centrifugation at 16,000 g, steady-state fluorescence measurements were performed with the supernatant at 25°C on a Horiba Fluoromax 4 system with both excitation and emission slits at 3 nm. The excitation wavelength was set at 439 nm, and emission spectra were recorded from 480 to 650 nm. For FRET measurements with SDS, several concentrations of SDS, both below and above the CMC determined for the given buffer conditions, were used, and hydrated samples were incubated overnight.
# (§3) Energy transfer E was calculated using the donor fluorescence intensities at 525 nm in presence and absence of acceptor according to [drawing 1] (1)
# To investigate the effect of A8-35 on the GpA dimer stability in greater detail, we next performed kinetic measurements and determined the exchange rates of GpA TM helices between various polymer particles after reconstitution. Upon addition of an excess of a competing surfactant, such as free APols, detergents or phospholipids, MPs can be released from preformed complexes with APols, although at very slow dissociation rates, and e.g. integrate into detergent micelles, [37]-[39]. To test this, donor- and acceptor-labeled GpA peptides were individually solubilized in 20 µM A8-35 and incubated at 37°C for at least 2 h. Next, A8-35-solubilized donor and acceptor peptides were mixed in a 1∶1 ratio, and fluorescence emission spectra were recorded every 10 min for about 17 h (Figure 3A). As a control necessary for calculation of energy transfer, this measurement was also performed with solely the donor sample, for which no changes in fluorescence intensity were observed. […] To compare the exchange rates measured in APols with rates determined in micellar environments, the same experiment was performed in 5 mM DDM micelles (Figure 3C).
# Figure 3 Kinetics of the exchange of GpA TM peptides between APol aggregates. Donor- and acceptor-labelled GpA TM (each 0.25 µM) domains were separately solubilized in 20 µM APol at a final polymer/peptide ratio of 40∶1. (A) After incubation at 37°C, donor and acceptor were mixed, and emission spectra (normalized at 525 nm) were recorded every 10 min over a time period of 17 h at 25°C. (B) The energy transfer increased over hours to the level determined by steady-state FRET measurements due to mixing of donor- and acceptor-labelled peptides.
# [2] = target: T1, human GpA TM domain; test: FRET at different acceptor mole ratios, stoichiometry of GpA TM domain association; format: binding; settings: constant total peptide, linear dependence, n = 2
# Description: as §1, with “For Förster resonance energy transfer (FRET) measurements, equal concentrations of FL- and TAMRA-labeled GpA TM domains were used.” left out, “In all experiments, we used 0.25 µM for each of the two labeled GpA peptides.” left out
# as §2, §3
# Besides formation of GpA dimers, the recorded energy transfer might, in principle, also originate from formation of higher-ordered oligomeric structures, such as trimers or tetramers, or even from unspecific peptide aggregation. […]
# [3] = Far-UV circular dichroism, secondary structure content of GpA TM domain; format: physicochemical; settings: 25°C; for α-helix content: unlabeled GpA peptide 5 µM, DICHROWEB CDSSTR, reference set 7, at least three averaged scans
# Description: CD spectra were recorded on a Jasco J-815 spectropolarimeter at 25°C in a step-scan mode using 0.1-cm path length quartz cells from Hellma (Mülheim, Germany). The concentration of unlabeled GpA peptide was 5 µM. Data points were collected at a resolution of 1 nm, an integration time of 1 s, and a bandwidth of 1 nm. Each shown spectrum results from at least three averaged scans from which buffer scans were subtracted. The measured ellipticity θ was converted to molar ellipticity [θ] by: [drawing 8] (5) where M is the molar mass, L the path length, and C the peptide concentration.
# The GpA TM domain was reconstituted in 10 mM phosphate buffer (pH 7.4) containing A8-35 as well as in several solvents containing SDS, DDM, or pure TFE, which are known to stabilize α-helical structures. Prior to CD measurements, samples were treated in the same way as described above for FRET measurements. Secondary structure contents were estimated with the DICHROWEB software, [31] using both soluble and TM proteins as reference datasets (CDSSTR method, reference set 7).
smiles,measurement,setting,value
CC[C@H](C)[C@H](NC(=O)CNC(=O)[C@H](Cc1ccc(O)cc1)NC(=O)[C@H](CO)NC(=O)[C@@H](NC(=O)[C@H](CC(C)C)NC(=O)[C@H](CC(C)C)NC(=O)[C@@H](NC(=O)[C@@H](NC(=O)CNC(=O)[C@@H](NC(=O)[C@@H](NC(=O)CNC(=O)[C@H](C)NC(=O)[C@H](CCSC)NC(=O)[C@@H](NC(=O)CNC(=O)[C@H](Cc1ccccc1)NC(=O)[C@@H](NC(=O)[C@@H](NC(=O)[C@H](CC(C)C)NC(=O)[C@@H](NC(=O)[C@@H](NC(=O)[C@H](CCC(=O)O)NC(=O)[C@@H]1CCCN1C(=O)[C@H](CCC(=O)O)NC(=O)[C@@H](N)CO)[C@@H](C)CC)[C@@H](C)O)[C@@H](C)CC)[C@@H](C)CC)C(C)C)C(C)C)[C@@H](C)CC)[C@@H](C)O)[C@@H](C)CC)[C@@H](C)CC)C(=O)N[C@@H](CCCNC(=N)N)C(=O)N[C@@H](CCCNC(=N)N)C(=O)N[C@@H](CC(C)C)C(=O)N[C@H](C(=O)N[C@@H](CCCCN)C(=O)N[C@@H](CCCCN)C(=O)O)[C@@H](C)CC [GpA TM domain],amplitude of first (fast) phase,[1]; 5 mM DDM micelles,13.3
same,amplitude of second (slow) phase,[1]; 5 mM DDM micelles,15.6
same,"exchange rate constant, first (fast) phase",[1]; 5 mM DDM micelles,41.5 h⁻¹
same,"exchange rate constant, second (slow) phase",[1]; 5 mM DDM micelles,5.8 h⁻¹
same,duration of peptide exchange,"[1]; 5 mM DDM micelles, listed as GpA TM peptides",completed after some dozen minutes
same,energy transfer,"[1]; 17 h after 1:1 mixing of donor- and acceptor-labeled peptides (each 0.25 µM) in 20 µM A8-35, 25°C",~35%
same,dimer fraction after exchange,"[1]; 17 h after mixing, from energy transfer, 20 µM A8-35, 25°C",~0.7
same,duration of peptide exchange,[1]; A8-35 (20 µM),proceeded for several hours
same,amplitude of first (fast) phase,"[1]; A8-35 (20 µM), 25°C",8.7
same,amplitude of second (slow) phase,"[1]; A8-35 (20 µM), 25°C",12.4
same,"exchange rate constant, first (fast) phase","[1]; A8-35 (20 µM), 25°C",2.2 h⁻¹
same,"exchange rate constant, second (slow) phase","[1]; A8-35 (20 µM), 25°C",0.17 h⁻¹
same,stoichiometry of association (energy transfer vs acceptor mole fraction),[2]; 5 µM A8-35,exclusive dimer formation
same,stoichiometry of association (energy transfer vs acceptor mole fraction),[2]; 50 µM A8-35,exclusive dimer formation
same,α-helix content,"[3]; 5 µM A8-35, 10 mM phosphate buffer pH 7.4",67%
same,effect of higher APol concentrations on peptide's secondary structure,"[3]; A8-35 concentrations above 5 µM, CD, 5 µM peptide",did not significantly affect the peptide's secondary structure
same,α-helix content,[3]; in 5 mM DDM,79%
same,α-helix content,[3]; in 5 mM SDS,76%
same,α-helix content,[3]; in TFE (pure),62%
